Test results as given in ChEMBL document CHEMBL1201862, “PubChem BioAssay data set” (2004).
Active and inactive are the calls of the source.

What was measured:
[1] = cytotoxicity in MITF-independent A375 cells – cell-based, CellTiter-Glo luminescence, dry powder, set 4, counter-screen for MITF inhibitor project, dose response (AID 624364); format: functional; conditions: A-375;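 further: A375 melanoma cells are MITF independent so this is a counter screen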
[2] = viability loss in MITF-independent A375 cells – cell-based, CellTiter-Glo luminescence, dry powder, set 2, counter-screen for MITF inhibitor project, dose response (AID 624489); format: functional; conditions: A-375;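 further: actives are compounds lowering A375 viability meaning general cytotoxicity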
[3] = biological target: Potassium channel subfamily K member 3 (Rattus norvegicus, UniProt O54912); assay: SAR analysis for the identification of selective inhibitors of the two-pore domain potassium channel TASK1(KCNK3):Automated Electrophysiology.; format: functional
[4] = biological target: Potassium channel subfamily K member 3 (Homo sapiens, UniProt O14649); assay: inhibition of human KCNK3 channel flux – CHO cells, FluxOR thallium flux, SAR follow-up (AID 652212); format: functional
[5] = mouse embryonic fibroblast toxicity – cell-based, plate reader, dry powder, set 2, cytotoxicity control, dose response (AID 652280); format: functional; conditions: NIH3T3
[6] = mouse fibroblast viability loss – cell-based, dry powder samples, cytotoxicity control, dose response (AID 651844); format: functional; conditions: NIH3T3
cells [7] = format: functional, cell-based
[8] = biological target: T1, Trace amine-associated receptor 1 (Homo sapiens, UniProt Q96RJ0); assay: Fluorescence-based cell-based high throughput dose response assay to identify agonists of the human trace amine associated receptor 1 (TAAR1).; format: functional
[9] = biological target: T1, Trace amine-associated receptor 1; assay: Counterscreen for agonists of the human trace amine associated receptor 1 (hTAAR1): Fluorescence-based cell-based high throughput dose response assay to identify hTAAR1 agonist that also desensitize TAAR1 receptor response.; format: functional
cells [10] = format: functional, cell-based; remark: listed apart in the source
[11] = HEK293T viability loss – cell-based, ATP luminescence, dry powder, Set6, cytotoxicity control, dose response (AID 743142); format: functional; conditions: HEK293
[12] = viability loss in A549 lung cancer cells – cell-based, CellTiter-Glo luminescence, dry powder, set 3, cytotoxicity control, dose response (AID 743146); format: functional
[13] = biological target: G2/mitotic-specific cyclin-B1 (Homo sapiens, UniProt P14635); assay: Counterscreen assay for inhibitors of Wee1 degradation: dose response cell-based assay to identify inhibitors of cyclin B degradation. [Related pubchem assays: 1410, 1321 ]; format: functional
[14] = biological target: Sphingosine 1-phosphate receptor 2 (Homo sapiens, UniProt O95136); assay: Dose Response Cell Based Assay for Antagonists of the S1P2 Receptor. [Related pubchem assays: 856, 736 ]; format: functional
Wee1-like protein kinase = Wee1-like protein kinase (Homo sapiens, UniProt P30291); assay: Dose Response Cell-based Assay for Inhibitors of Wee1 Degradation. [Related pubchem assays: 1410, 1321 ]; format: functional
[15] = biological target: T2, Heat shock factor protein 1 (Mus musculus, UniProt P38532); assay: decrease of HSF1-responsive luciferase luminescence – cell-based, NIH3T3, dose retest, confirmation (AID 2382); format: functional;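 further: NIH3T3 fibroblasts with HSF1-driven luciferase reporter stressed by proteasome inhibitor MG132; luminescence from HSF1-driven luciferase expression after 8 hours of MG132 stress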
T2 sequence (P38532 whole entry): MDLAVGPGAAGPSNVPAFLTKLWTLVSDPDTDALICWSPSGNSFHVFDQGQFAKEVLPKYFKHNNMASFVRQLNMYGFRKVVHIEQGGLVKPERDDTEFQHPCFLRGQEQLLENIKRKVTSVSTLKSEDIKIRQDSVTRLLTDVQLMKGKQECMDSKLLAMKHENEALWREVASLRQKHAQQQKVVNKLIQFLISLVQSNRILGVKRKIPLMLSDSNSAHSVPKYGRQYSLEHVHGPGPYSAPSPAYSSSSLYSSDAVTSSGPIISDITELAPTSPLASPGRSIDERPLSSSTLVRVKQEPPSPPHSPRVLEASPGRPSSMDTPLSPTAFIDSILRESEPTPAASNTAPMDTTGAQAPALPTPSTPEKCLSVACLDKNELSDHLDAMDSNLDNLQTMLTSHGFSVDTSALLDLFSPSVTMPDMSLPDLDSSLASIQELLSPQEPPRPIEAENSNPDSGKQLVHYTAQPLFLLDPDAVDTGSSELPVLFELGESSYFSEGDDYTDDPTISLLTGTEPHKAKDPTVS

[16] = HPDE-C7 pancreatic duct cell viability loss – fluorescence, HTS (AID 430); format: functional, cell-based; conditions: Homo sapiens
[17] = viability loss of HPDE-C7K cells – cell-based, fluorescence, HTS, primary screen (AID 431); format: functional; conditions: Homo sapiens
[18] = HEK-293T viability loss after treatment – luminescence, T-cell screen hits, cytotoxicity control for TCR NF-kB inhibitor project, dose response (AID 489026); format: functional, cell-based;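 further: cells exposed to compound about 14 hours before the viability readout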
INS1 = assay: INS-1E survival protection against cytokine death – cell-based, luminescence, retest, dose response (AID 449756); format: functional; conditions: Rattus norvegicus;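 further: cell death triggered by IL-1 beta plus TNF-alpha plus IFN-gamma mixture; protective hits raise ATP signal compared with cytokine alone wells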
[19] = activation of miR-122 Renilla sensor silencing – cell-based, Huh7 psiCHECK-miR122, Renilla luciferase, cherry-picked, dose response (AID 651956); format: functional;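 further: huh7 hepatoma cells stably carrying a psiCHECK-2 miR-122 sensor plasmid; renilla luciferase signal reporting endogenous miR-122 activity after 48 h compound exposure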
[20] = reduced cellular PGC1a acetyl-lysine signal – cell-based, cherry-picked samples, dose response (AID 720514); format: functional;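 further: potency may reflect raised or lowered acetylation signal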
[21] = general mammalian cell viability loss – inhibitor set, cherry-pick, set 2, cytotoxicity control for miR-122 modulator project, dose response (AID 720697); format: functional, cell-based
[22] = general mammalian cell viability loss – activator set, cherry-pick, cytotoxicity control for miR-122 modulator project, dose response (AID 720690); format: functional, cell-based;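 further: HEK293T human cells scored for general mammalian cytotoxicity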
Major prion protein = Major prion protein (Homo sapiens, UniProt P04156); format: functional, cell-based
cells [23] = assay: cells
cells [24] = conditions: A549
[25] = viability loss in A549 lung cancer cells – cell-based, cherry-picks, […], cytotoxicity control, dose response (AID 1053119); format: functional
[26] = blockers of FN fibrillogenesis by fibroblasts – AH1F cells, Alexa488-FN fluorescence, cherry-picks, dose response (AID 1035475); format: functional, cell-based
[27] = biological target: T3, Scavenger receptor class B member 1 (Mus musculus, UniProt Q61009); assay: mouse SR-BI DiI-HDL transfer blockers – ldlA[mSR-BI] CHO cells, fluorescence plate reader, dry powder, set 9, dose response (AID 623880); format: functional, cell-based
[28] = biological target: T3, Scavenger receptor class B member 1; assay: blockers of DiI-HDL lipid transfer via SR-BI – cell-based, ldlA[mSR-BI] CHO, DiI fluorescence, dry powder, set 10, dose response (AID 624029); format: functional

C=CCNC1=C(N2CCN(C)CC2)C(=O)c2ccccc2C1=O
AC50 [1]: 34.4 µM (active) | AC50 [2]: 15.9 µM (active)

Cc1cccc(C(=O)Nc2cccc(NC(=O)c3ccncc3)c2)c1
IC50 [3]: 2.14 µM (active) | IC50 [4]: 0.162 µM (active)

CC(C)N1C[C@H](C)[C@@H](CN(C)Cc2ccc(Oc3ccccc3)cc2)Oc2c(NC(=O)C3CCN(C)CC3)cccc2C1=O
AC50 [5]: 8.58 µM (active) | AC50 [6]: 8.58 µM (active)

CN1CCNC(=O)C1CC(=O)NCCc1ccccc1F (stereo unspecified)
IC50 (cells [7]): > 29.9 µM (inactive) | EC50 [8]: 2.49 µM (active) | IC50 [9]: 6.6 µM (active) | EC50 (cells [10]): > 29.9 µM (inactive)

O=C(CCNC(=O)c1ccc(Cl)c(Cl)c1)N[C@@H]1CCCc2ccccc21
AC50 [11]: 3.34 µM (active) | AC50 [12]: 26 µM (active)

O=S(=O)(C/C(=C/CO)S(=O)(=O)c1ccccc1)c1ccccc1
EC50 [13]: > 5.53 µM (active) | IC50 [14]: 3.07 µM (active) | EC50 (Wee1-like protein kinase): > 5.53 µM (active) | EC50 [15]: 4.31 µM (active) | EC50 [16]: 1.92 µM (active) | EC50 [17]: 2.5 µM (active) | IC50 [18]: 67.1 µM (inactive) | AC50 (INS1): 9.58 µM (active) | AC50 [19]: 6.77 µM (active) | AC50 [20]: 3.28 µM (active) | AC50 [21]: 4.09 µM (active) | AC50 [22]: 4.73 µM (active) | IC50 (Major prion protein): 9.14 µM (active) | IC50 (cells [23]): 42.9 µM (inactive)

Cc1noc(C)c1-c1ccc(C(=O)NCCc2ccccc2)c2occc12
AC50 (cells [24]): > 52 µM (inactive)

COc1ccc(Cl)cc1NC(=O)CSc1nc(Nc2ccccc2)nc(N2CCOCC2)n1
AC50 [25]: > 52 µM (inactive) | AC50 [26]: 64.2 µM (active)

C[C@@H]1CN([C@H](C)CO)C(=O)c2cc(NC(=O)C3CCCCC3)ccc2O[C@H]1CN(C)S(=O)(=O)c1ccc(Cl)cc1
AC50 [27]: 0.0686 µM (active) | AC50 [28]: 0.0616 µM (active)
